According to ChEMBL document CHEMBL1201862, “PubChem BioAssay data set” (2004):
One block for each molecule: values may come before it. Active and inactive are the calls of the source.

Assays:
Format in all cases: functional
Orexin receptor type 2 [1] = target: T1, Orexin receptor type 2 (Homo sapiens, UniProt O43614); assay: Counterscreen assay for antagonists of the orexin 1 receptor (OX1R; HCRTR1): Fluorescence-based cell-based dose response assay for antagonists of the orexin 2 receptor (OX2R; HCRTR2), run by assay provider.
T1 sequence (O43614 whole entry): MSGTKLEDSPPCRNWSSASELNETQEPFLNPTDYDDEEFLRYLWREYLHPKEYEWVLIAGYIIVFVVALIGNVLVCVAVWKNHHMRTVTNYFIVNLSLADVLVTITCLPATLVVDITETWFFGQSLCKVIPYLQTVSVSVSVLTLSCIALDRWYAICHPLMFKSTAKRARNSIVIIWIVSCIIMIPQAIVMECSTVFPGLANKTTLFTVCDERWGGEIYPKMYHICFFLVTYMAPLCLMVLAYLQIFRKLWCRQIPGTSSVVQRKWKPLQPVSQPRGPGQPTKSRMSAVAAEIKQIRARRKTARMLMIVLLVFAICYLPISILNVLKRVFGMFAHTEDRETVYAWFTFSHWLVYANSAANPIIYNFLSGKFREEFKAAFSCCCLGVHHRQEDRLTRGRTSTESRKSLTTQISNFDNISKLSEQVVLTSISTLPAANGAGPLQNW

Orexin receptor type 2 [2] = target: T1, Orexin receptor type 2; assay: Counterscreen assay for antagonists of the orexin 1 receptor (OX1R; HCRTR1): Homogeneous Time Resolved Fluorescence (HTRF)-based cell-based dose response assay for antagonists of the orexin 2 receptor (OX2R; HCRTR2), run by assay provider.
[3] = target: T2, Orexin/Hypocretin receptor type 1 (Homo sapiens, UniProt O43613); assay: Homogeneous Time Resolved Fluorescence (HTRF)-based cell-based high throughput dose response assay for antagonists of the orexin 1 receptor (OX1R; HCRTR1). [Related pubchem assays (depositor defined):AID434989, AID435008, AID463079, AID485270, AID492963, AID492964, AID492965, AID493232, AID504717, AID504718]
T2 sequence (O43613 whole entry): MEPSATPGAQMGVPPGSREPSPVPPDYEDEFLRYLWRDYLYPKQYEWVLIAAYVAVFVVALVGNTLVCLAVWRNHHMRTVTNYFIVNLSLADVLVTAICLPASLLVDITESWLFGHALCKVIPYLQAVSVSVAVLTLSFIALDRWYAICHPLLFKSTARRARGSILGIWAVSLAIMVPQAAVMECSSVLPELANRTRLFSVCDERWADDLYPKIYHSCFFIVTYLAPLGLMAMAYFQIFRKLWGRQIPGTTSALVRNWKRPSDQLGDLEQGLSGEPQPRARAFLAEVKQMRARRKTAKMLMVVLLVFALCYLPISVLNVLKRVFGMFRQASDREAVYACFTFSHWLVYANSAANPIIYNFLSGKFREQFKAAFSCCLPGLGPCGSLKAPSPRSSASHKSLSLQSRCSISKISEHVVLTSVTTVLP

CHO-K1 = assay: (§1) Counterscreen for antagonists of the orexin 1 receptor (OX1R; HCRTR1): Homogeneous time resolved fluorescence (HTRF)-based cell-based dose response assay to identify antagonists of the parental CHO-K1 cell line. [Related pubchem assays (depositor defined):AID434989, AID435008, AID463079, AID485270, AID492963, AID492964, AID492965, AID493232, AID504699, AID504701]; details: Cricetulus griseus
[4] = target: T2, Orexin/Hypocretin receptor type 1; assay: Fluorescence-based cell-based high throughput dose response assay for antagonists of the orexin 1 receptor (OX1R; HCRTR1). [Related pubchem assays (depositor defined):AID434989, AID435008, AID463079, AID485270, AID492963, AID492964, AID492965, AID493232, AID504717, AID504718]
[5] = as §1, with “Fluorescence-based” for “Homogeneous time resolved fluorescence (HTRF)-based”, “cell-based high throughput” for “cell-based”, “CHO” for “CHO-K1”
[6] = target: T3, Sentrin-specific protease 7 (Homo sapiens, UniProt Q9BQF6); assay: SENP7 protease inhibitors, SAR follow-up, biochemical, luminescence (AID 504497)
T3 sequence (Q9BQF6 whole entry): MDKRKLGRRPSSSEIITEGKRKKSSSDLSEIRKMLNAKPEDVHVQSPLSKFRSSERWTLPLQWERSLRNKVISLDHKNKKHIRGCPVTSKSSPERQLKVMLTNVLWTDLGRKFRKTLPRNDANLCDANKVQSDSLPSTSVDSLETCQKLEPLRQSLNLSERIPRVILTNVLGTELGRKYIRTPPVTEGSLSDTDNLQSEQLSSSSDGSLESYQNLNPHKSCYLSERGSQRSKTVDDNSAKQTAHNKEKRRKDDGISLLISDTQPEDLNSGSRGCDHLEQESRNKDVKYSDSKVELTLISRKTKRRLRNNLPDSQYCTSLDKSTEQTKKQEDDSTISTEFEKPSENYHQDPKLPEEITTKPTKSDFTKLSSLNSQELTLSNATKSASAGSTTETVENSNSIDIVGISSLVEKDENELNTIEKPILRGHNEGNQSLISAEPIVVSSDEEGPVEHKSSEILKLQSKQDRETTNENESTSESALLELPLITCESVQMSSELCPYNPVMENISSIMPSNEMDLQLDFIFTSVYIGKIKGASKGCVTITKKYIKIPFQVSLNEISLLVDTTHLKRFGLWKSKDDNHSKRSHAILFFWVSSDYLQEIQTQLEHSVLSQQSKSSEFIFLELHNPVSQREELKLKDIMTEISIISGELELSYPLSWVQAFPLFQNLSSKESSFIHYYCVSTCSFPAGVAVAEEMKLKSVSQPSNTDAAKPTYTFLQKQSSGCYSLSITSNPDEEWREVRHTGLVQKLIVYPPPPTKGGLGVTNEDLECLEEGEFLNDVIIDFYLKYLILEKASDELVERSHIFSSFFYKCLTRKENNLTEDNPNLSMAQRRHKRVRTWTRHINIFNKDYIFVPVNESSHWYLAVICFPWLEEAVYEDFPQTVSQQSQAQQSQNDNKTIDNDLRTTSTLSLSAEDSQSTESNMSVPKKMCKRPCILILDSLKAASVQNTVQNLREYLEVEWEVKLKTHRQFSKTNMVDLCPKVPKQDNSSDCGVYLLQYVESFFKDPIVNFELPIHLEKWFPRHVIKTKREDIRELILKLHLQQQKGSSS

[7] = target: T4, Sentrin-specific protease 8 (Homo sapiens, UniProt Q96LD8); assay: SENP8 protease inhibitors, SAR follow-up, biochemical, luminescence (AID 504501)
T4 sequence (Q96LD8 whole entry): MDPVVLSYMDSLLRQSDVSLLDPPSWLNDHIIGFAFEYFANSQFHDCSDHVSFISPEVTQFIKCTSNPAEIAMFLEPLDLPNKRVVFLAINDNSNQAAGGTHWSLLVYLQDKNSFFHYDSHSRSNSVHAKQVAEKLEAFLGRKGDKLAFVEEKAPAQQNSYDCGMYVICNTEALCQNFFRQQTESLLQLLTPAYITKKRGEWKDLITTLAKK

[8] = target: T5, Sentrin-specific protease 6 (Homo sapiens, UniProt Q9GZR1); assay: SAR Analysis of small molecule inhibitors of Sentrin-specific protease 6 (SENP6) using a Luminescent assay. [Related pubchem assays (depositor defined):AID2582, AID2599]
T5 sequence (Q9GZR1 whole entry): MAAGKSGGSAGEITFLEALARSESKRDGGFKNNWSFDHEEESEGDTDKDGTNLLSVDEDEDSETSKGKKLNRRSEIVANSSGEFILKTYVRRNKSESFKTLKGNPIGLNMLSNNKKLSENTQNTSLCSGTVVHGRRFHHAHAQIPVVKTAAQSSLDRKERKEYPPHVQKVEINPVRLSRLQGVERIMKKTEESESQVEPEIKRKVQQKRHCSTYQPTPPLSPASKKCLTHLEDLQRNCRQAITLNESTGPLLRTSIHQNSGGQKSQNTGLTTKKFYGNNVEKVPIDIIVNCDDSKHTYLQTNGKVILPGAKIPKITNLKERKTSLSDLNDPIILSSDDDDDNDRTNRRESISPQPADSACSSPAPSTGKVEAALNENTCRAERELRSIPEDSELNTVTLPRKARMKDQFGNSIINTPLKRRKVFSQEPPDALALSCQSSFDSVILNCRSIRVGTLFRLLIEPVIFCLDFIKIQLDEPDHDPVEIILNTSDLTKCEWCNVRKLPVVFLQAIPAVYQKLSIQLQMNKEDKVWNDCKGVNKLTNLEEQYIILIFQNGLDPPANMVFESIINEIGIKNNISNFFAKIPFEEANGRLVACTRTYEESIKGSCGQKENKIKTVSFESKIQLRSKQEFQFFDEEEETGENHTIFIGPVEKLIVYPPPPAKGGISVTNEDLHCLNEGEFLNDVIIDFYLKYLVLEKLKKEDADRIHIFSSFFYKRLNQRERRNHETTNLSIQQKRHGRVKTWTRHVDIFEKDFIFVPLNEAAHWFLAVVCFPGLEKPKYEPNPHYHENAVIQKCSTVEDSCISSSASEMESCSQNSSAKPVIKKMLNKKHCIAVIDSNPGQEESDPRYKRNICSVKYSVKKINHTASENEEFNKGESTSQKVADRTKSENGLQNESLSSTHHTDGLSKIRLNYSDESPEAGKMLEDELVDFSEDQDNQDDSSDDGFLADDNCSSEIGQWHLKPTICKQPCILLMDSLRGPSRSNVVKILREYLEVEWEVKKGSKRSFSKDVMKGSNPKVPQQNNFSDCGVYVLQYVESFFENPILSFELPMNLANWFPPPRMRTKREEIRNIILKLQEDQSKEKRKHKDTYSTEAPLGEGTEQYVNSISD

Caspase-3 = target: T6, Caspase-3 (Homo sapiens, UniProt P42574); assay: SAR Analysis of small molecule inhibitors of Sentrin-specific proteases (SENPs) using a Caspase-3 Selectivity assay. [Related pubchem assays (depositor defined):AID2540, AID2599, AID434973, AID489001]
T6 sequence (P42574 whole entry): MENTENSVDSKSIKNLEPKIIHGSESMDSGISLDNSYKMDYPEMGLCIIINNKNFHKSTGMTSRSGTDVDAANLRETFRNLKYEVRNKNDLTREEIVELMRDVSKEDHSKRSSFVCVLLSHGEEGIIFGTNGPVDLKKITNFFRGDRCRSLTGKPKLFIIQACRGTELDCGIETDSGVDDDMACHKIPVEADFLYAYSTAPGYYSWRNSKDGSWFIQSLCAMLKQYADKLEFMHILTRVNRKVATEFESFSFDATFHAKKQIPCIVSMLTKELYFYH

[9] = target: Tyrosine-protein kinase Fyn (Homo sapiens, UniProt P06241)
Chain of Tyrosine-protein kinase Fyn (P06241 whole entry): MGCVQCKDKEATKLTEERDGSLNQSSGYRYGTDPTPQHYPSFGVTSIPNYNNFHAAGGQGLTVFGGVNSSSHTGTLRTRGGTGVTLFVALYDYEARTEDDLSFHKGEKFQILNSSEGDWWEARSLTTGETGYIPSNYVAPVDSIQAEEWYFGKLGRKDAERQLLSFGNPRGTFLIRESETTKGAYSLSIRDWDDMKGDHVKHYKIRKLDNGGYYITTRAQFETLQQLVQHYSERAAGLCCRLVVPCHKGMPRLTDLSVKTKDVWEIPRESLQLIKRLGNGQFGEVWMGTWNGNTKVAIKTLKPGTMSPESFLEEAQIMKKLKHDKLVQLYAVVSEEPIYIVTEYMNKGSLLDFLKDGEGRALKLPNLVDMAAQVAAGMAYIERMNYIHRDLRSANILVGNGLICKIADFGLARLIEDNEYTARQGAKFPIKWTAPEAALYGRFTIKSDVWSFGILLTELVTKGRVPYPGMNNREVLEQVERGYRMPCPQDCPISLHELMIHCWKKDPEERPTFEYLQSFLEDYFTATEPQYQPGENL

[10] = target: Tyrosine-protein kinase Blk (Homo sapiens, UniProt P51451);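 also: obtained as one member of a kinome-wide kinase assay panel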
Chain of Tyrosine-protein kinase Blk (P51451 whole entry): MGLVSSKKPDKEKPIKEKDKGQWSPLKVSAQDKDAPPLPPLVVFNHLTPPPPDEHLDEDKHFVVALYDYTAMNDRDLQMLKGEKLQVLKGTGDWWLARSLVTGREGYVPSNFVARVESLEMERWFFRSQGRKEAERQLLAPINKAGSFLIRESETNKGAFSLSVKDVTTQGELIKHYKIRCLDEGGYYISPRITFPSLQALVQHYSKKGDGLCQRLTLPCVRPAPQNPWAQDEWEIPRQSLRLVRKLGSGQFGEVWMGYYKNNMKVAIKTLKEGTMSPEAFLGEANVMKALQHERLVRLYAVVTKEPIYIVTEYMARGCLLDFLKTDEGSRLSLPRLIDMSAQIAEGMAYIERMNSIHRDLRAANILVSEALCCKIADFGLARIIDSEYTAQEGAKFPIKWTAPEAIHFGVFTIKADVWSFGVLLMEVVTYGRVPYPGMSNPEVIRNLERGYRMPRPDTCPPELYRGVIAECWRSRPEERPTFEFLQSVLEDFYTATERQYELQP

[11] = target: Receptor-type tyrosine-protein kinase FLT3 (Homo sapiens, UniProt P36888);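 also: FLT3 was tested as one member of a kinome-wide kinase panel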
[12] = target: Vascular endothelial growth factor receptor 3 (Homo sapiens, UniProt P35916);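 also: value from a kinome-wide profiling panel, with FLT4 as the panel member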
Chain of Vascular endothelial growth factor receptor 3 (P35916 whole entry): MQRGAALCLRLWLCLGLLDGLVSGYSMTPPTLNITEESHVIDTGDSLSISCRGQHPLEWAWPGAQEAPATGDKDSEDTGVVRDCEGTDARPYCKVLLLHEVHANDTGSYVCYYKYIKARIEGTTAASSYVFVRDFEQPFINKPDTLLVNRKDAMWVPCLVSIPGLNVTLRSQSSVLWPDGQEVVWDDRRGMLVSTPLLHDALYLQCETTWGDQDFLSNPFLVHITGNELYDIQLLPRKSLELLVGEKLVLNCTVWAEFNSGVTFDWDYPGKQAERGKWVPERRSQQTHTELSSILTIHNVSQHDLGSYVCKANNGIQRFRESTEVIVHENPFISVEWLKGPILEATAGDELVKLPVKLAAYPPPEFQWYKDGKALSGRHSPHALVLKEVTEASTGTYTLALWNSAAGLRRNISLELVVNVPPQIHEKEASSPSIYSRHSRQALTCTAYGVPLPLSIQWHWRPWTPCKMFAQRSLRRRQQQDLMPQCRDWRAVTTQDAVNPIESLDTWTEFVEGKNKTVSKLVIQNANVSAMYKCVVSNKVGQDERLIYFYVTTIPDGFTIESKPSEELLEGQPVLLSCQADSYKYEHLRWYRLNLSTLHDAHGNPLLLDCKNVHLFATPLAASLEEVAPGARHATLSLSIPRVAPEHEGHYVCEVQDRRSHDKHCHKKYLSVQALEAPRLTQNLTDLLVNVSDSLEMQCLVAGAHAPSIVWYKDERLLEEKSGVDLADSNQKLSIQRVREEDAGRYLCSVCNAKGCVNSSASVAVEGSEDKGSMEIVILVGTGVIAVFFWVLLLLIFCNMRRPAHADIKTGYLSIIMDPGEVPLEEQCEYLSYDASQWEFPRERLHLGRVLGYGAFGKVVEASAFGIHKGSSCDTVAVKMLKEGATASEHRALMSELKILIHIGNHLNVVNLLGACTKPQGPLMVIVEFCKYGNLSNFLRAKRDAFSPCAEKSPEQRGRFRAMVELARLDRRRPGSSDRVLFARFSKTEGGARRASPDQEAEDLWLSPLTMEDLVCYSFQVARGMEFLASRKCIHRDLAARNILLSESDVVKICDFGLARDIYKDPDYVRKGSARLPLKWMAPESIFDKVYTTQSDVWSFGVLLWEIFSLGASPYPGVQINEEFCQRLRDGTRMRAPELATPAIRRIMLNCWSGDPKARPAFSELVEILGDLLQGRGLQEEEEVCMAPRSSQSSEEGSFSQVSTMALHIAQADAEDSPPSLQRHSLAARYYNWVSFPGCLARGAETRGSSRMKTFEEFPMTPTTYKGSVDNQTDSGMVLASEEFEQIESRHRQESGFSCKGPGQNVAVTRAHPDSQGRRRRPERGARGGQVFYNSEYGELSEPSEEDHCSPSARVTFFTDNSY

[13] = target: Tyrosine-protein kinase Lck (Homo sapiens, UniProt P06239);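 also: lck was assayed as one member of a kinase panel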
[14] = target: Proto-oncogene tyrosine-protein kinase Src (Homo sapiens, UniProt P12931);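 also: SRC entry within a kinome-wide kinase profiling panel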
[15] = target: Tyrosine-protein kinase ABL1 (Homo sapiens, UniProt P00519)
Chain of Tyrosine-protein kinase ABL1 (P00519 whole entry): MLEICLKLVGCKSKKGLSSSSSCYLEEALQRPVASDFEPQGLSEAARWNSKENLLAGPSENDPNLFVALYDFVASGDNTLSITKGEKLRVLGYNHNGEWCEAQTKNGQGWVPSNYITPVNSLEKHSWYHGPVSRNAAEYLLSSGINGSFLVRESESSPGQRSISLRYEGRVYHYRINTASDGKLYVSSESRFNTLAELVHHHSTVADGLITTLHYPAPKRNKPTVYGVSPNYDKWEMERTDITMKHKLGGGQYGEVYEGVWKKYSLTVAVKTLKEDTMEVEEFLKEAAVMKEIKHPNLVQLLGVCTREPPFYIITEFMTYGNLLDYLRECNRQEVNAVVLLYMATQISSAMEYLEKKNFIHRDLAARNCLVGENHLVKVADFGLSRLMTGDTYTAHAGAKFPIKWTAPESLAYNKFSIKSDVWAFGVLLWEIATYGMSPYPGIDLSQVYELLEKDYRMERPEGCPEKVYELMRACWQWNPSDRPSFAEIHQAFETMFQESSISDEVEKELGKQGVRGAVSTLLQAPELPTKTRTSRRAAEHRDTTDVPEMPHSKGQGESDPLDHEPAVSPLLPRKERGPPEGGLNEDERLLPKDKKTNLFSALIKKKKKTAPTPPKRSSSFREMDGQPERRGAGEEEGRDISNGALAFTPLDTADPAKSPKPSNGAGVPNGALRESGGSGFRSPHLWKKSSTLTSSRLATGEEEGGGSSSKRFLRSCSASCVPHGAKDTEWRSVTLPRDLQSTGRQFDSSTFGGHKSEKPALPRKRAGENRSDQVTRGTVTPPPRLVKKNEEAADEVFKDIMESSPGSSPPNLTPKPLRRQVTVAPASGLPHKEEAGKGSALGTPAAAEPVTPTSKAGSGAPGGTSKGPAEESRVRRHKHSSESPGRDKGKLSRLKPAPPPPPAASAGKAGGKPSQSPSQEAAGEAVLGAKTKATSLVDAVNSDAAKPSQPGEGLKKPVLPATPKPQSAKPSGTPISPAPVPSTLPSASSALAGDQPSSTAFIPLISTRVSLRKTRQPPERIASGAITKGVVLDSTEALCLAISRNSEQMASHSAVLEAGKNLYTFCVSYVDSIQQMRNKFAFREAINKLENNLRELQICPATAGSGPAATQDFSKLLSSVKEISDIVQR

[16] = target: Vascular endothelial growth factor receptor 1 (Homo sapiens, UniProt P17948);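 also: measured within a kinome-wide profiling panel, FLT1 as the panel member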
[17] = target: Macrophage colony-stimulating factor 1 receptor (Homo sapiens, UniProt P07333);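 also: value comes from the Navigating the Kinome screening panel, CSF1R member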
[18] = target: Mast/stem cell growth factor receptor Kit (Homo sapiens, UniProt P10721);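 also: KIT entry within a kinase panel assay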
[19] = target: Vascular endothelial growth factor receptor 2 (Homo sapiens, UniProt P35968)
Chain of Vascular endothelial growth factor receptor 2 (P35968 whole entry): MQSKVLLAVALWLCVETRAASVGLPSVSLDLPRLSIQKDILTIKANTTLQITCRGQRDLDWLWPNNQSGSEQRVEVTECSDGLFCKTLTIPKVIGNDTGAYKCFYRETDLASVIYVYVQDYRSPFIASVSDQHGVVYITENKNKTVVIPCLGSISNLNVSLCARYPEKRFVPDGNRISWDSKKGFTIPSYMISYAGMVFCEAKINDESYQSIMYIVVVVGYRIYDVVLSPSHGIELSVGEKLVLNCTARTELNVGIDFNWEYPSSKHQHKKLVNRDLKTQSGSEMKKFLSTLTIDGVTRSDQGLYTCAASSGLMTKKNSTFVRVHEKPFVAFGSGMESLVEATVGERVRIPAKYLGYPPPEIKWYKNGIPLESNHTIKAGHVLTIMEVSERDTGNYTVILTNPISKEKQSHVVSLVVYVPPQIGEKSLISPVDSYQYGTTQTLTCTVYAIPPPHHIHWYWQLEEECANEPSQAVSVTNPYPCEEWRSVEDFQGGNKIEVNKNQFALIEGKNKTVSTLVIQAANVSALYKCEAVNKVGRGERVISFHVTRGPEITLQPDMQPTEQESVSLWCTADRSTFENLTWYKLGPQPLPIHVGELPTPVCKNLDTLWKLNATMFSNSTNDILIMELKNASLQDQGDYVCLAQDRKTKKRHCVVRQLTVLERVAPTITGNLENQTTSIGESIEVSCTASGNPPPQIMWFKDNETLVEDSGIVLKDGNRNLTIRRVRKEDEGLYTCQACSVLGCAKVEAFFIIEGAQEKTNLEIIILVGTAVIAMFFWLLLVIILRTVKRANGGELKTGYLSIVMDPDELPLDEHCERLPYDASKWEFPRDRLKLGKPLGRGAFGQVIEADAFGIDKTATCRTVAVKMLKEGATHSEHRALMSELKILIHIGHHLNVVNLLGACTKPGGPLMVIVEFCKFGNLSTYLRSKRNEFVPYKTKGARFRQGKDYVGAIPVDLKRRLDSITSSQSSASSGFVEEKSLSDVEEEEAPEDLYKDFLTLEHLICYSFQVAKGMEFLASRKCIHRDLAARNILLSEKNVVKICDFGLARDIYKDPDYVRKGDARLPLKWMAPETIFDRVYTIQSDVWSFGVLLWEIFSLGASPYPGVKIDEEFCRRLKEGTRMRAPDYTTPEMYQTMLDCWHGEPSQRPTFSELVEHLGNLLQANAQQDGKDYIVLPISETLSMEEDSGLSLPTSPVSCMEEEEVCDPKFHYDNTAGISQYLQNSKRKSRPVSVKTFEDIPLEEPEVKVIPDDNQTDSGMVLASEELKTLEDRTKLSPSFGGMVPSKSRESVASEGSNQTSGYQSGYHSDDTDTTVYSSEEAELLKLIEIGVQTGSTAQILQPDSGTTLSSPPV

[20] = target: Tyrosine-protein kinase Lyn (Homo sapiens, UniProt P07948);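 also: lyn as one member of a kinase panel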

Compound: CN(C)c1ccc(NC(=S)c2ccc3ccccc3n2)cc1
IC50 (Orexin receptor type 2 [1]): > 88.8 µM (inactive)
IC50 (Orexin receptor type 2 [2]): > 50 µM (inactive)
IC50 [3]: 2.86 µM (active)
IC50 (CHO-K1): > 66.3 µM (inactive)
IC50 [4]: 6.04 µM (active)
IC50 [5]: > 49.8 µM (inactive)

Compound: COc1ccc2sc(-c3ccc(N(C)C)cc3)c(C#CCO)c2c1
IC50 (Orexin receptor type 2 [1]): 37.4 µM (inactive)
IC50 (Orexin receptor type 2 [2]): > 50 µM (inactive)
IC50 [3]: 6.09 µM (active)
IC50 (CHO-K1): > 66.2 µM (inactive)
IC50 [4]: 10.3 µM (inactive)
IC50 [5]: > 49.7 µM (inactive)

IC50 [6]: > 99 µM (inactive)
IC50 [8]: > 99 µM (inactive)
IC50 (Caspase-3): > 99 µM (inactive)
Compound: ON(O)c1ccc(N/N=C/c2c[nH]c3ccccc23)cc1
IC50 [7]: > 99 µM (inactive)

Ki [9]: 0.501 µM (active)
Ki [10]: 0.398 µM (active)
Ki [11]: 0.00158 µM (active)
Ki [12]: 0.00158 µM (active)
Ki [13]: 0.316 µM (active)
Ki [14]: 0.794 µM (active)
Ki [15]: 0.2 µM (active)
Ki [16]: 0.000316 µM (active)
Ki [17]: 0.00251 µM (active)
Ki [18]: 0.000794 µM (active)
Ki [19]: 0.000631 µM (active)
Ki [20]: 0.126 µM (active)
Compound: Cn1nc(N)c2c(-c3ccc(NC(=O)Nc4cccc(C(F)(F)F)c4)cc3)ccnc21
